# Experimental data from patent publication US20250144067A1, “PERSONALIZED STARVATION THERAPY FOR CANCER” (Faeth Therapeutics, Inc., priority 2021, published 2025).
# Counter-ions that a name gives are not always drawn. Like-named read-outs stand apart in the source and are kept apart here.
# How the values were obtained:
# [1] = tested on: NCI-H292 lung cancer cells; test: FDA drug screening, complete media vs cholesterol-free media without statin (TABLE 1); format: cell-based, human
# [2] = tested on: NCI-H292 lung cancer cells; test: FDA drug screening, complete media vs cholesterol-free media with simvastatin (TABLE 2); format: cell-based, human
# [3] = Complete minus Cholesterol-free, >0 enhanced anti-cancer activity, about 0 neutral, <0 antagonist
# [4] = NCI-H292 cells, cholesterol-free media without statin
# [5] = NCI-H292 cells, cholesterol-free media with simvastatin 0.04 μM, FDA drug library screen (TABLE 2)
# [6] = NCI-H292 cells, complete media, FDA drug library screen (TABLE 2)
# [7] = complete media minus cholesterol-free media + simvastatin (0.04 μM), >0 enhanced anti-cancer activity, about 0 neutral, <0 antagonist
# [8] = Complete minus Cholesterol-free, greater than 0 enhanced anti-cancer activity, about 0 neutral, below 0 antagonist
# [9] = NCI-H292 cells, FDA drug library screen, cholesterol-free media without statin
# [10] = NCI-H292 cells, FDA drug library screen, complete media
# [11] = NCI-H292 cells, drug in cholesterol-free media with simvastatin 0.04 μM
# [12] = NCI-H292 cells, drug in complete media
# [13] = complete media vs cholesterol-free media + simvastatin (0.04 μM), >0 enhanced anti-cancer activity, about 0 neutral, <0 antagonist
# [14] = Complete minus Cholesterol-free, greater than 0 enhanced anti-cancer activity, about 0 neutral, below 0 antagonists
# [15] = NCI-H292 cells in cholesterol-free media without statin
# [16] = NCI-H292 cells in complete media
# [17] = NCI-H292 cells, FDA library drug in cholesterol-free media with simvastatin 0.04 μM
# [18] = NCI-H292 cells, FDA library drug in complete media
# [19] = NCI-H292 cells, cholesterol-free media without statin, FDA drug library screen
# [20] = NCI-H292 cells, complete media, FDA drug library screen
# [21] = NCI-H292 cells, FDA drug library screen, cholesterol-free media with simvastatin 0.04 μM
# [22] = complete media vs cholesterol-free media + simvastatin (0.04 μM), […]
# [23] = complete media minus cholesterol-free media + simvastatin, >0 enhanced anti-cancer activity, about 0 neutral, <0 antagonist
# [24] = complete vs cholesterol-free media, greater than 0 enhanced anti-cancer activity, about 0 neutral, below 0 antagonists
compound,measurement,setting,value
O=C(O)c1cc(/N=N/c2ccc(S(=O)(=O)Nc3ccccn3)cc2)ccc1O [Sulfasalazine],Difference,[1]; [3],−0.20
same,Cholesterol-free,[1]; [4],1.104
same,Complete,"[1]; NCI-H292 cells, complete media",0.9081
same,Cholesterol-free media + simvastatin (0.04 μM),[2]; [5],1.17
same,Complete Media,[2]; [6],1.155
same,Difference,[2]; [7],−0.01
CC(=O)Oc1cccc2c1C(=O)c1c(OC(C)=O)cc(C(=O)O)cc1C2=O [Diacerein],Difference,[1]; [8],−0.13
same,Cholesterol-free,[1]; [9],1.078
same,Complete,[1]; [10],0.9444
same,Cholesterol-free media + simvastatin (0.04 μM),[2]; [11],1.08
same,Complete Media,[2]; [12],0.9105
same,Difference,[2]; [13],−0.17
Doxazosin (mesylate),Difference,[1]; [14],−0.61
same,Cholesterol-free,[1]; [15],1.69
same,Complete,[1]; [16],1.083
same,Cholesterol-free media + simvastatin (0.04 μM),[2]; [17],1.325
same,Complete Media,[2]; [18],0.9839
same,Difference,[2]; [13],−0.34
Polidocanol,Cholesterol-free,[1]; [19],0.7606
same,Complete,[1]; [20],0.9235
same,Difference,"[1]; complete vs cholesterol-free media, […]",0.16
same,Cholesterol-free media + simvastatin (0.04 μM),[2]; [21],1.046
same,Complete Media,[2]; [10],0.8917
same,Difference,[2]; [22],−0.15
Oc1c(I)cc(I)c2cccnc12 [Diiodohydroxyquinoline],Difference,[1]; [3],−0.27
same,Cholesterol-free,[1]; [4],1.098
same,Complete,"[1]; NCI-H292 cells, complete media",0.8284
same,Cholesterol-free media + simvastatin (0.04 μM),[2]; [21],0.94
same,Complete Media,[2]; [10],1.35
same,Difference,[2]; [23],0.41
COc1cc2nccc(Oc3ccc(NC(=O)Nc4cc(C)on4)c(Cl)c3)c2cc1OC [Tivozanib],Cholesterol-free,[1]; [4],1.298
same,Complete,"[1]; NCI-H292 cells, complete media",0.868
same,Difference,[1]; [24],−0.43
same,Cholesterol-free media + simvastatin (0.04 μM),[2]; [21],0.868
same,Complete Media,[2]; [10],1.06
same,Difference,[2]; [23],0.19
CO/N=C(\C(=O)N[C@@H]1C(=O)N2C(C(=O)O)=C(COC(C)=O)CS[C@H]12)c1csc(N)n1 [Cefotaxime (sodium salt)],Cholesterol-free,[1]; [4],1.268
same,Complete,"[1]; NCI-H292 cells, complete media",0.9622
same,Difference,[1]; [24],−0.31
same,Cholesterol-free media + simvastatin (0.04 μM),[2]; [21],1.284
same,Complete Media,[2]; [10],1.139
same,Difference,[2]; [13],−0.15
O=C(CCCCC(=O)Nc1c(I)cc(I)c(C(=O)O)c1I)Nc1c(I)cc(I)c(C(=O)O)c1I [Iodipamide],Difference,[1]; [8],−0.08
same,Cholesterol-free,[1]; [9],0.9527
same,Complete,[1]; [10],0.876
same,Cholesterol-free media + simvastatin (0.04 μM),[2]; [11],1.387
same,Complete Media,[2]; [12],1.135
same,Difference,[2]; [13],−0.25
Oc1c(Cl)cc(Cl)cc1Sc1cc(Cl)cc(Cl)c1O [Bithionol],Difference,[1]; [8],−0.09
same,Cholesterol-free,[1]; [9],0.9314
same,Complete,[1]; [10],0.8442
same,Cholesterol-free media + simvastatin (0.04 μM),[2]; [17],2.228
same,Complete Media,[2]; [18],1.353
same,Difference,[2]; [13],−0.88
CC1COc2c(N3CCN(C)CC3)c(F)cc3c(=O)c(C(=O)O)cn1c23 (stereo not drawn) [Ofloxacin],Cholesterol-free,[1]; [4],1.221
same,Complete,"[1]; NCI-H292 cells, complete media",0.8562
same,Difference,[1]; [24],−0.36
same,Cholesterol-free media + simvastatin (0.04 μM),[2]; [11],1.154
same,Complete Media,[2]; [12],0.9389
same,Difference,[2]; [13],−0.22
"COc1ccc2cc1Oc1ccc(cc1)C[C@H]1c3c(cc4c(c3Oc3cc5c(cc3OC)CCN(C)[C@@H]5C2)OCO4)CCN1C [cepharanthine, reference compound]",Difference,[1]; [3],0.04
same,Cholesterol-free,[1]; [19],1.12
same,Complete,[1]; [20],1.159
same,Cholesterol-free media + simvastatin (0.04 μM),[2]; [21],0.1249
same,Complete Media,[2]; [10],1.4
same,Difference,[2]; [23],1.27
CCN(CC)CC#CCOC(=O)C(O)(c1ccccc1)C1CCCCC1 (stereo not drawn) [Oxybutynin (chloride)],Cholesterol-free,[1]; [4],1.171
same,Complete,"[1]; NCI-H292 cells, complete media",0.8317
same,Difference,[1]; [24],−0.34
same,Cholesterol-free media + simvastatin (0.04 μM),[2]; [11],1.236
same,Complete Media,[2]; [12],1.034
same,Difference,[2]; [13],−0.20
CCCCOc1ccc(OCCCN2CCOCC2)cc1 [Pramocaine (hydrochloride)],Cholesterol-free,[1]; [4],1.301
same,Complete,"[1]; NCI-H292 cells, complete media",0.9298
same,Difference,[1]; [24],−0.37
same,Cholesterol-free media + simvastatin (0.04 μM),[2]; [21],0.6469
same,Complete Media,[2]; [10],1.047
same,Difference,[2]; [23],0.40
Brimonidine (tartrate),Cholesterol-free,[1],1.093
same,Complete,[1],0.9545
same,Difference,[1],−0.14
same,Cholesterol-free media + simvastatin (0.04 μM),[2],1.704
same,Complete Media,[2],1.309
same,Difference,[2],−0.39
Clc1ccc2c(c1)CCc1cccnc1C2=C1CCNCC1 [Desloratadine],Cholesterol-free,[1],1.114
same,Complete,[1],0.8419
same,Difference,[1],−0.27
same,Cholesterol-free media + simvastatin (0.04 μM),[2],0.922
same,Complete Media,[2],0.6254
same,Difference,[2],−0.30
O=C(O)P(=O)(O)O [Foscarnet (sodium)],Cholesterol-free,[1]; [4],1.261
same,Complete,"[1]; NCI-H292 cells, complete media",0.9196
same,Difference,[1]; [24],−0.34
same,Cholesterol-free media + simvastatin (0.04 μM),[2]; [11],1.224
same,Complete Media,[2]; [12],1.051
same,Difference,[2]; [13],−0.17
Nc1ncc2ncn(CC3(OCP(=O)(O)O)CC3)c2n1 [Besifovir],Cholesterol-free,[1]; [4],1.23
same,Complete,"[1]; NCI-H292 cells, complete media",0.9121
same,Difference,[1]; [24],−0.32
same,Cholesterol-free media + simvastatin (0.04 μM),"[2]; NCI-H292 cells, cholesterol-free media with simvastatin 0.04 μM, cell growth value in FDA drug screen",0.9124
same,Complete Media,"[2]; NCI-H292 cells, complete media, cell growth value in FDA drug screen",0.9846
same,Difference,[2]; [23],0.07
C#C[C@]1(OC(C)=O)CC[C@H]2[C@@H]3CCC4=C[C@@H](OC(C)=O)CC[C@@H]4[C@H]3CC[C@@]21C [Ethynodiol diacetate],Difference,[1]; [14],−0.50
same,Cholesterol-free,[1]; [15],1.654
same,Complete,[1]; [16],1.155
same,Cholesterol-free media + simvastatin (0.04 μM),[2]; [17],1.26
same,Complete Media,[2]; [18],0.9323
same,Difference,[2]; [13],−0.33
NC(=O)NC1NC(=O)NC1=O (stereo not drawn) [Allantoin],Difference,[1]; [8],−0.09
same,Cholesterol-free,[1]; [9],0.5704
same,Complete,[1]; [10],0.4823
same,Cholesterol-free media + simvastatin (0.04 μM),[2]; [17],1.146
same,Complete Media,[2]; [18],0.6387
same,Difference,[2]; [13],−0.51
CC(=O)NC[C@H]1CN(c2ccc(N3CCOCC3)c(F)c2)C(=O)O1 [Linezolid],Difference,[1]; [3],0.04
same,Cholesterol-free,[1]; [19],0.9483
same,Complete,[1]; [20],0.9881
same,Cholesterol-free media + simvastatin (0.04 μM),[2]; [11],1.38
same,Complete Media,[2]; [12],1.187
same,Difference,[2]; [13],−0.19
CC(C)NCC(O)COc1cccc2ccccc12 (stereo not drawn) [Propranolol (hydrochloride)],Cholesterol-free,[1]; [4],1.016
same,Complete,"[1]; NCI-H292 cells, complete media",0.5683
same,Difference,[1]; [24],−0.45
same,Cholesterol-free media + simvastatin (0.04 μM),[2]; [5],0.8722
same,Complete Media,[2]; [6],0.8715
same,Difference,[2]; [7],0.00
Cc1ncc(CO)c(CO)c1O.Cl [Pyridoxine (hydrochloride)],Difference,"[1]; Complete minus Cholesterol-free, […]",−0.61
same,Cholesterol-free,[1]; [15],1.496
same,Complete,[1]; [16],0.8868
same,Cholesterol-free media + simvastatin (0.04 μM),[2]; [17],1.33
same,Complete Media,[2]; [18],0.9936
same,Difference,[2]; [22],−0.34
Sulconazole (nitrate),Difference,[1]; [3],0.04
same,Cholesterol-free,[1]; [19],0.9221
same,Complete,[1]; [20],0.9667
same,Cholesterol-free media + simvastatin (0.04 μM),[2]; [21],0.3022
same,Complete Media,[2]; [10],0.9753
same,Difference,[2]; [23],0.67
Chloroquine (phosphate),Cholesterol-free,[1],1.557
same,Complete,[1],0.9171
same,Difference,[1],−0.64
same,Cholesterol-free media + simvastatin (0.04 μM),[2],1.286
same,Complete Media,[2],0.98
same,Difference,[2],−0.31
Cc1oc(=O)oc1COC(=O)[C@@H]1N2C(=O)[C@@H](NC(=O)[C@H](N)c3ccccc3)[C@H]2SC1(C)C [Lenampicillin (hydrochloride)],Difference,[1]; [8],−0.08
same,Cholesterol-free,[1]; [9],1.101
same,Complete,[1]; [10],1.02
same,Cholesterol-free media + simvastatin (0.04 μM),[2]; [21],1.05
same,Complete Media,[2]; [10],0.9118
same,Difference,[2]; [13],−0.14
CC(C)(S)[C@@H](N)C(=O)O [Penicillamine],Difference,[1]; [14],−0.55
same,Cholesterol-free,[1]; [15],1.556
same,Complete,[1]; [16],1.005
same,Cholesterol-free media + simvastatin (0.04 μM),[2]; [11],1.252
same,Complete Media,[2]; [12],1.083
same,Difference,[2]; [13],−0.17
C=CC(N)CCC(=O)O (stereo not drawn) [Vigabatrin (hydrochloride)],Difference,[1]; [14],−0.74
same,Cholesterol-free,[1]; [15],1.769
same,Complete,[1]; [16],1.024
same,Cholesterol-free media + simvastatin (0.04 μM),[2]; [5],1.122
same,Complete Media,[2]; [6],1.063
same,Difference,[2]; [7],−0.06
CN(C)[C@@H]1C(O)=C(C(N)=O)C(=O)[C@@]2(O)C(O)=C3C(=O)c4c(O)ccc(Cl)c4[C@@H](O)[C@H]3C[C@@H]12 [Demeclocycline (hydrochloride)],Difference,[1]; [14],−0.59
same,Cholesterol-free,[1]; [15],1.527
same,Complete,[1]; [16],0.9395
same,Cholesterol-free media + simvastatin (0.04 μM),[2]; [5],1.054
same,Complete Media,[2]; [6],1.04
same,Difference,[2]; [7],−0.01
Cc1cc2cc3c(C)cc(=O)oc3c(C)c2o1 [Trioxsalen],Cholesterol-free,[1]; [19],1.107
same,Complete,[1]; [20],1.239
same,Difference,"[1]; complete vs cholesterol-free media, >0 enhanced anti-cancer activity, about 0 neutral, <0 antagonist",0.13
same,Cholesterol-free media + simvastatin (0.04 μM),[2]; [21],1.056
same,Complete Media,[2]; [10],0.9717
same,Difference,[2]; [13],−0.08
Cc1cc(NC(=O)C2=C(O)c3ccccc3S(=O)(=O)N2C)no1 [Isoxicam],Difference,[1]; [14],−0.71
same,Cholesterol-free,[1]; [15],1.72
same,Complete,[1]; [16],1.015
same,Cholesterol-free media + simvastatin (0.04 μM),[2]; [11],1.282
same,Complete Media,[2]; [12],1.064
same,Difference,[2]; [13],−0.22
